For nine compounds, melting point and IC50 results are on record in patent US7361671B2, “Substituted heteroarylalkanoic acids” (The Institute for Pharmaceutical Discovery, Inc., priority 2001, dated 2008).

Series [1] deals with human aldose reductase (hALR2) (Homo sapiens, UniProt P15121). The experiment in a line: inhibition of human aldose reductase (hALR2) activity, methods similar to Butera et al. It is filed as biochemical. The conditions noted are these: concentration to inhibit activity by 50%, read-out: hAR-#1 (aldose). The method, then:
Representative compounds of the invention are tested for their potency, selectivity and efficacy as inhibitors of human aldose reductase. […] Using this assay, the concentrations required to inhibit human aldose reductase (hALR2) activity by 50% (IC50) are determined.

Counter-ions that a name gives are not always drawn.

As usually defined, the melting point is the temperature of the solid-liquid transition. For the compound `O=C(O)Cc1cnc(Cc2ccccc2)c(Cc2nc3c(F)c(F)cc(F)c3s2)c1` (as salt: hydrochloride) [Example 16, 6-Benzyl-5-(4,5,7-trifluoro-benzothiazol-2-ylmethyl)-pyridin-3-yl-acetic acid hydrochloride], the melting point is 185 °C (dec.).
For `Cc1nc(C)c(Cc2nc3c(F)c(F)cc(F)c3s2)cc1CC(=O)O.Cl` [Example 4, 2,6-Dimethyl-5-(4,5,7-trifluoro-benzothiazole-2-ylmethyl)-pyridin-3-yl-acetic acid hydrochloride], the melting point is 211 °C (dec.). Further, the IC50 in series [1] was 4 nM.
Taken in the same sequence, the figures for `CCc1nc(CC)c(Cc2nc3c(F)c(F)cc(F)c3s2)cc1CC(=O)O.Cl` [Example 5, [2,6-Diethyl-5-(4,5,7-trifluoro-benzothiazol-2-ylmethyl)-pyridin-3-yl]acetic acid hydrochloride] were 143 to 145 °C and 7 nM.
`Cl.O=C(O)Cc1cc(Cc2nc3c(F)c(F)cc(F)c3s2)c(-c2ccccc2)nc1-c1ccccc1` [Example 6, [2,6-Diphenyl-5-(4,5,7-trifluoro-benzothiazol-2-ylmethyl)-pyridin-3-yl]acetic acid hydrochloride] yielded a melting point of 84 to 86 °C. For the same compound, in series [1], the IC50 turned out to be 11 nM.
On to `CCCc1nc(CCC)c(Cc2nc3c(F)c(F)cc(F)c3s2)cc1CC(=O)O.Cl` [Example 7, [2,6-Dipropyl-5-(4,5,7-trifluoro-benzothiazol-2-ylmethyl)-pyridin-3-yl]acetic acid hydrochloride], for which the melting point fell in the range of 98 to 100 °C. Also, the IC50 in series [1] amounted to 7 nM.
`Cc1sc(C)c(Cc2nc3c(F)c(F)cc(F)c3s2)c1CC(=O)O` [Example 18, [2,5-Dimethyl-4-(4,5,7-trifluoro-benzothiazol-2-ylmethyl)-thiophen-3-yl]-acetic acid] returned a melting point of 170 to 171 °C. Moreover, the IC50 in series [1] came to 36 nM.
Taken in the same sequence, the figures for `O=C(O)Cc1ccc(Cc2nc3c(F)c(F)cc(F)c3s2)s1` [Example 19, [5-(4,5,7-trifluoro-benzothiazol-2-ylmethyl)-thiophen-2-yl]-acetic acid] were 132 to 133 °C and 27 nM.
Turning to `O=C(O)Cc1cc(Cc2nc3c(F)c(F)cc(F)c3s2)cs1` [Example 21, [4-(4,5,7-Trifluoro-benzothiazol-2-ylmethyl)-thiophen-2-yl]-acetic acid], the melting point lay in the range of 144 to 146 °C. In series [1], the IC50 was found to be 9 nM.
With `O=C(O)Cc1ccsc1Cc1nc2c(F)c(F)cc(F)c2s1` [Example 23, [2-(4,5,7-trifluoro-benzothiazol-2-ylmethyl)-thiophen-3-yl]-acetic acid], the melting point lay within 142 to 144 °C. Also, in series [1], the IC50 came to 24 nM.
